Results from PubChem BioAssay AID1963835 (Molecular Pharmacology Branch, DTP, NCI, 2024).

Test system: 699152-130-R-J1-PDC complex spheroid viability
Test: Anticancer human tumor 699152-130-R-J1-PDC patient-derived pancreatic carcinoma cell line growth inhibition [POLQ]
Settings: for IC50: curve of first compound; for viability, T/C: stronger effect = lower value
How it was run: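 Patient-derived tumour cells were co-cultured with HUVEC and mesenchymal stem cells as multicellular spheroids at 37 °C. They were treated with POLQ inhibitors (novobiocin, ART-558, RP6685) alone or combined with other agents. Top concentrations were at or near clinical Cmax (otherwise 10 microM; SN-38 at 1 microM), decreasing in half-log steps.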

[1] = second compound 0.0316 µM, first compound 0.0316 µM
[2] = second compound 0.0316 µM, first compound 0.1 µM
[3] = second compound 0.0316 µM, first compound 0.316 µM
[4] = second compound 0.0316 µM, first compound 1 µM
[5] = second compound 0.0316 µM, first compound 3.16 µM
[6] = second compound 0.0316 µM, first compound 10 µM
[7] = second compound 0.1 µM, first compound 0.0316 µM
[8] = second compound 0.1 µM, first compound 0.1 µM
[9] = second compound 0.1 µM, first compound 0.316 µM
[10] = second compound 0.1 µM, first compound 1 µM
[11] = second compound 0.1 µM, first compound 3.16 µM
[12] = second compound 0.1 µM, first compound 10 µM
[13] = second compound 0.316 µM, first compound 0.0316 µM
[14] = second compound 0.316 µM, first compound 0.1 µM
[15] = second compound 0.316 µM, first compound 0.316 µM
[16] = second compound 0.316 µM, first compound 1 µM
[17] = second compound 0.316 µM, first compound 3.16 µM
[18] = second compound 0.316 µM, first compound 10 µM
[19] = second compound 1 µM, first compound 0.0316 µM
[20] = second compound 1 µM, first compound 0.1 µM
[21] = second compound 1 µM, first compound 0.316 µM
[22] = second compound 1 µM, first compound 1 µM
[23] = second compound 1 µM, first compound 3.16 µM
[24] = second compound 1 µM, first compound 10 µM
[25] = second compound 3.16 µM, first compound 0.0316 µM
[26] = second compound 3.16 µM, first compound 0.1 µM
[27] = second compound 3.16 µM, first compound 0.316 µM
[28] = second compound 3.16 µM, first compound 1 µM
[29] = second compound 3.16 µM, first compound 3.16 µM
[30] = second compound 3.16 µM, first compound 10 µM
[31] = second compound 10 µM, first compound 0.0316 µM
[32] = second compound 10 µM, first compound 0.1 µM
[33] = second compound 10 µM, first compound 0.316 µM
[34] = second compound 10 µM, first compound 1 µM
[35] = second compound 10 µM, first compound 3.16 µM
[36] = second compound 10 µM, first compound 10 µM
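Further: spheroids exposed to agents for 7 days before viability reading.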
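Wherever viability, T/C is given: percent of DMSO vehicle control viability so 100% = vehicle and 0% = no viable signal.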

COc1cc2cc(C(=O)CCC(=O)O)sc2cc1OC + Nc1ccc(C#CCN(C(=O)Cc2ncc(C(F)(F)F)cc2C(F)(F)F)c2ccc(F)cc2)nn1
IC50 (second compound 0.0316 µM): > 10 µM
IC50 (second compound 0.1 µM): > 10 µM
IC50 (second compound 0.316 µM): > 10 µM
IC50 (second compound 1 µM): > 10 µM
IC50 (second compound 3.16 µM): > 10 µM
IC50 (second compound 10 µM): > 10 µM
viability, T/C [1]: 88.3%
viability, T/C [2]: 94%
viability, T/C [3]: 90.2%
viability, T/C [4]: 98.3%
viability, T/C [5]: 102%
viability, T/C [6]: 88.9%
viability, T/C [7]: 99%
viability, T/C [8]: 93.8%
viability, T/C [9]: 95.5%
viability, T/C [10]: 110%
viability, T/C [11]: 107%
viability, T/C [12]: 106%
viability, T/C [13]: 104%
viability, T/C [14]: 97.3%
viability, T/C [15]: 90.3%
viability, T/C [16]: 105%
viability, T/C [17]: 105%
viability, T/C [18]: 104%
viability, T/C [19]: 102%
viability, T/C [20]: 94.2%
viability, T/C [21]: 133%
viability, T/C [22]: 96.9%
viability, T/C [23]: 110%
viability, T/C [24]: 97.8%
viability, T/C [25]: 119%
viability, T/C [26]: 122%
viability, T/C [27]: 104%
viability, T/C [28]: 102%
viability, T/C [29]: 91.8%
viability, T/C [30]: 102%
viability, T/C [31]: 114%
viability, T/C [32]: 124%
viability, T/C [33]: 121%
viability, T/C [34]: 111%
viability, T/C [35]: 112%
viability, T/C [36]: 109%

CCc1cc2c(N3CCc4c(cc(Cn5ccnc5)cc4-c4cn(C)nc4C(F)(F)F)C3=O)ccnc2c(OC)n1 + Nc1ccc(C#CCN(C(=O)Cc2ncc(C(F)(F)F)cc2C(F)(F)F)c2ccc(F)cc2)nn1
IC50 (second compound 0.0316 µM): > 10 µM
IC50 (second compound 0.1 µM): > 10 µM
IC50 (second compound 0.316 µM): > 10 µM
IC50 (second compound 1 µM): > 10 µM
IC50 (second compound 3.16 µM): > 10 µM
IC50 (second compound 10 µM): > 10 µM
viability, T/C [1]: 93.3%
viability, T/C [2]: 87.5%
viability, T/C [3]: 91.8%
viability, T/C [4]: 89.9%
viability, T/C [5]: 102%
viability, T/C [6]: 99.6%
viability, T/C [7]: 88.4%
viability, T/C [8]: 90%
viability, T/C [9]: 89.4%
viability, T/C [10]: 98%
viability, T/C [11]: 101%
viability, T/C [12]: 100%
viability, T/C [13]: 86.2%
viability, T/C [14]: 93.5%
viability, T/C [15]: 93.6%
viability, T/C [16]: 95.4%
viability, T/C [17]: 106%
viability, T/C [18]: 99.1%
viability, T/C [19]: 92.5%
viability, T/C [20]: 91.2%
viability, T/C [21]: 107%
viability, T/C [22]: 94.7%
viability, T/C [23]: 106%
viability, T/C [24]: 98.8%
viability, T/C [25]: 88%
viability, T/C [26]: 88.5%
viability, T/C [27]: 96.4%
viability, T/C [28]: 102%
viability, T/C [29]: 107%
viability, T/C [30]: 104%
viability, T/C [31]: 101%
viability, T/C [32]: 102%
viability, T/C [33]: 111%
viability, T/C [34]: 111%
viability, T/C [35]: 109%
viability, T/C [36]: 110%

CC1COCCN1c1cc(C2(S(C)(=N)=O)CC2)nc(-c2ccnc3[nH]ccc23)n1 (stereo unspecified) + COC1C(OC(N)=O)C(O)C(Oc2ccc3c(O)c(NC(=O)c4ccc(O)c(CC=C(C)C)c4)c(=O)oc3c2C)OC1(C)C
IC50 (second compound 0.0316 µM): > 10 µM
IC50 (second compound 0.1 µM): > 10 µM
IC50 (second compound 0.316 µM): > 10 µM
IC50 (second compound 1 µM): > 10 µM
IC50 (second compound 3.16 µM): > 10 µM
IC50 (second compound 10 µM): > 10 µM
viability, T/C [1]: 103%
viability, T/C [2]: 102%
viability, T/C [3]: 95.4%
viability, T/C [4]: 96.6%
viability, T/C [5]: 79%
viability, T/C [6]: 69.3%
viability, T/C [7]: 89.8%
viability, T/C [8]: 88%
viability, T/C [9]: 90.2%
viability, T/C [10]: 101%
viability, T/C [11]: 73.3%
viability, T/C [12]: 60.4%
viability, T/C [13]: 98%
viability, T/C [14]: 101%
viability, T/C [15]: 106%
viability, T/C [16]: 88.3%
viability, T/C [17]: 78.8%
viability, T/C [18]: 63%
viability, T/C [19]: 119%
viability, T/C [20]: 97.6%
viability, T/C [21]: 108%
viability, T/C [22]: 92.9%
viability, T/C [23]: 77.8%
viability, T/C [24]: 66.5%
viability, T/C [25]: 108%
viability, T/C [26]: 99.2%
viability, T/C [27]: 98.1%
viability, T/C [28]: 86.4%
viability, T/C [29]: 69.3%
viability, T/C [30]: 64.5%
viability, T/C [31]: 104%
viability, T/C [32]: 107%
viability, T/C [33]: 90.7%
viability, T/C [34]: 90.7%
viability, T/C [35]: 86%
viability, T/C [36]: 87.3%
